From US20030187049A1, “Compositions based on aminoacids, suitable for improving muscle performance” (priority 2003, published 2003)

System: athletes
Experiment: comparative study of amino acids mixture, creatine and placebo in athletes: bench press, squat, braked bicycle ergometer
Assay type: in vivo, humans
Source text: The effects on energy balance of the an amino acids mixture according to the invention as above indicated were the subject of a comparative study with creatine, on a weight ratio (w/w), or with no treatment, on a large group of volunteers submitted to a rigid protocol of alimentation and training. […] In some athletes, also heart frequency rate and VO2 max were registered while performing a treadmill test, before arid at the end of this study.

[1] = after one month of treatment and training, mixture 24 g/d, creatine 25 g/d

SMILES: CN(CC(=O)O)C(=N)N [creatine]
- performances over basal and no treatment group (after one month): significant improvements of performances
- Bench press [1]: 177 ± 34 kg
- Squat Room. [1]: 148.5 ± 31.2 kg
- Watt/Kg max (maximal power productive performance on a braked bicycle ergometer) [1]: 9.8 ± 0.6 watt/kg max
